{
  "source": "patent US20250195469A1",
  "about": "“COMPANION DIAGNOSTICS AND STRATEGIES FOR TREATMENT WITH AN ARYL HYDROCARBON RECEPTOR AGONIST COMPOUND” (AZORA THERAPEUTICS, INC., priority 2022, published 2025)",
  "key": {"AhR": {"target": "T1, AhR (Homo sapiens, UniProt P35869)", "T1 construct": "takes a biopsy of the treated skin from this treated spot; from tissue; host or cells: human skin biopsy, epidermal cells", "T1 sequence (P35869 11-848)": "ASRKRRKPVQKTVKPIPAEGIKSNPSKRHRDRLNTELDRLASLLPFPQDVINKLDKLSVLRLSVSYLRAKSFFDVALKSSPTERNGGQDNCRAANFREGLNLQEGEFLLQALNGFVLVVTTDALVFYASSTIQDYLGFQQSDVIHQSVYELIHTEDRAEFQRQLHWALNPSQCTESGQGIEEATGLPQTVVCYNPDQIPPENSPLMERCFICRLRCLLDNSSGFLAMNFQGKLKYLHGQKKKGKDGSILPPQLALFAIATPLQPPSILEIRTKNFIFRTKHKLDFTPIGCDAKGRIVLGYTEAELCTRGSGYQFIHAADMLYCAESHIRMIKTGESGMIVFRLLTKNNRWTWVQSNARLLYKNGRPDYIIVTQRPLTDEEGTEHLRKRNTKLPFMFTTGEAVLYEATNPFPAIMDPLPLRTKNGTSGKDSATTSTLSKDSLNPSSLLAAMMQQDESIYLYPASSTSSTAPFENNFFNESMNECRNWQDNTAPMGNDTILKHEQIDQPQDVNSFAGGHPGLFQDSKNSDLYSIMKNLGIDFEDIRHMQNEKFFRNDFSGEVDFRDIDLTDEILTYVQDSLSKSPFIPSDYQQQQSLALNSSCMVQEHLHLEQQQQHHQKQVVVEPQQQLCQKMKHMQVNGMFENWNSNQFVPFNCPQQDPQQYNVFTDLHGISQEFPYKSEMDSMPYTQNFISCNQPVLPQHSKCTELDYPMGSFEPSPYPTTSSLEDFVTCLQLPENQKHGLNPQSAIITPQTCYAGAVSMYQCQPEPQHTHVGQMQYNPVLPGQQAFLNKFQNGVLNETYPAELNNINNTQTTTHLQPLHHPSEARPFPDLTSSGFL", "test": "Inhaled AhR antagonist combined with indirubin therapy", "type": "in vivo", "conditions": "two weeks, with nanoparticulate indirubin", "excerpt": "During the course of therapy with a nanoparticulate form of synthetic indirubin for the treatment of gastritis, a patient complains of ad adverse event, in this case shortness of breath and difficulty doing physical exercise. The patient is responding well to therapy but the doctor is concerned about possible development of additional PAH-like symptoms. The doctor maintains the indirubin therapy but prescribes the patient an inhalable AhR antagonist, in this case inhaled 1-Methyl-N-[2-methyl-4-[2-(2-methylphenyl)diazenyl]phenyl-1H-pyrazole-5-carboxamide (CH223191) that is designed to reduce AhR signaling in the lung epithelium."}, "PBMCs": {"test_system": "PBMCs", "test": "EROD activity of PBMCs stimulated with AhR agonist", "type": "cell-based, human", "conditions": "patient PBMCs, 24 hours, compared to healthy normal PBMCs", "method": "Prior to starting therapy with a topical AhR agonist for the treatment of pustular psoriasis, a blood sample is collected. PBMCs are processed and sent out fresh for stimulation with and without the AhR agonist FICZ. After 24 hours, EROD activity is measured. […] The ratio of stimulated to unstimulated EROD activity may be indicative of baseline AhR activity and responsiveness to AhR therapy. […] Based on the data, the patient's dermatologist prescribes the topical AhR agonist for the treatment of pustular psoriasis."}, "guinea pigs": {"test_system": "guinea pigs", "conditions": "cited from earlier work"}, "hamsters": {"test_system": "hamsters", "conditions": "cited from earlier work"}, "mice": {"test_system": "mice", "conditions": "chronic dosing, only starting after 15 days of exposure; cited from earlier work"}, "ALT and AST": {"test_system": "ALT and AST", "test": "Liver enzymes after indigo modified release tablet, with or without lead in dose", "type": "in vivo, human", "method": "As such, a product label identified a clinical regiment whereby a lead in dose of 5 mg indigo is administered once daily for 2 consecutive days prior to beginning the 50 mg therapeutic dose."}, "[1]": {"method": "A patient with pouchitis is being treated with an oral suspension containing 10 mg indirubin twice daily. Plasma samples are taken weekly during the first 6 weeks of therapy and sent out for PK analysis for indirubin levels. […] The physician reduces the dose to 2.5 mg once per day."}, "CYP1A1": {"test_system": "CYP1A1", "method": "(§1) A patient with Crohn's disease is given 50 mg of indirubin in an immediate release tablet once daily. A diagnostic is set to evaluate the mRNA levels of both CYP1A1 and CYP1A2 in the blood using RT-PCR of peripheral blood mononuclear cell mRNA every two weeks."}, "CYP1A2": {"test_system": "CYP1A2", "method": "as §1"}, "[2]": {"test_system": "relapsing-remitting multiple sclerosis patients", "conditions": "low dose (0.6 mg/day); cited from earlier work"}, "[3]": {"test": "Echocardiogram monitoring during linomide therapy (REMS)", "type": "in vivo, human", "conditions": "oral tablet, after 6 months", "excerpt": "Based on the label of an orally administered tablet containing linomide, a patient must enroll in a risk evaluation and mitigation strategy (REMS). In the case of this drug, patients must comply with ongoing echocardiogram monitoring requirements. […] The prescribing physician evaluates the echocardiogram an decides the patient should be discontinued. The physician passes this information along to the REMS program by logging the data into a secure server. Subsequently the server alerts the patient and the prescribing pharmacy that the patient is no longer eligible to refill their linomide tablet prescription."}, "[4]": {"test_system": "multiple sclerosis patients", "conditions": "Phase 3; cited from earlier work"}, "[5]": {"test": "AhR agonist metabolism in blood microsomes, AhR-luciferase reporter readout", "type": "in vitro ADME, human", "conditions": "10 nM, 24 hours", "method": "Prior to beginning therapy with oral meisoindigo for the treatment of rheumatoid arthritis, a physician orders a diagnostic to assess ability of the subject to adequately metabolize meisoindigo. Blood microsomes are extracted from the subject and incubated in medium containing 10 nM meisoindigo for 24 hours. The microsomes are removed via ultra-centrifugation and the remaining medium is added to a reporter cell line (such as product IB06001 sold by Indigo Biosciences) that expresses luciferase behind the promoter for human CYP1A1 and which can detect AhR agonist activity. […] Based on the results of this diagnostic, the physician believes the patient has a defect making them a poor metabolizer of meisoindigo and recommends against the use of meisoindigo due to the possibility of development of adverse events."}, "[6]": {"test": "Headaches with delayed release indirubin, omeprazole lead in dose", "conditions": "20 mg delayed-release capsule before delayed release indirubin, first week"}, "[7]": {"test_system": "plaque psoriasis patients", "conditions": "phase 3, plaque psoriasis patients; cited from earlier work"}, "[8]": {"conditions": "50 mg immediate release tablet once daily, after two weeks"}, "[9]": {"conditions": "two weeks after reduction to 10 mg every other day"}},
  "note": "Like-named read-outs stand apart in the source and are kept apart here.",
  "data": [
    {"smiles": "Cc1ccccc1N=Nc1ccc(NC(=O)c2ccnn2C)c(C)c1", "note": "[CH223191]", "values": [
      {"measurement": "shortness of breath after combination therapy", "setting": "AhR", "result": "no longer has shortness of breath"}
    ]},
    {"smiles": "O=Cc1c2c(cc3c1=Nc1ccccc1-3)=Nc1ccccc1-2", "note": "[FICZ, 6-formylindolo[3,2−b]carbazole]", "values": [
      {"measurement": "EROD activity after stimulation", "setting": "PBMCs", "result": "high EROD activity"}
    ]},
    {"smiles": "Clc1cc2c(cc1Cl)Oc1cc(Cl)c(Cl)cc1O2", "note": "[TCDD, 2,3,7,8-tetrachlorodibenzo-p-dioxin]", "values": [
      {"measurement": "LD50", "setting": "guinea pigs", "result": 1, "unit": "µg/kg"},
      {"measurement": "LD50", "setting": "hamsters", "result": "over 5000 μg/kg"},
      {"measurement": "mean arterial blood pressure", "setting": "mice", "result": "increased"}
    ]},
    {"smiles": "O=C1/C(=C2\\Nc3ccccc3C2=O)Nc2ccccc21", "note": "[indigo]", "values": [
      {"measurement": "patients with the ALT and AST increase", "setting": "ALT and AST; 50 mg twice daily modified release tablet, 2 days", "result": 50, "unit": "%"},
      {"measurement": "increase in ALT and AST", "setting": "ALT and AST; 50 mg twice daily modified release tablet, 2 days following administration", "result": 5, "unit": "×"},
      {"measurement": "changes in ALT or AST levels", "setting": "ALT and AST; lead in dose 5 mg once daily for 2 days before 50 mg therapeutic dose, 2 days following therapeutic dosing", "result": "did not produce any notable changes"}
    ]},
    {"smiles": "O=C1Nc2ccccc2/C1=C1/Nc2ccccc2C1=O", "note": "[indirubin]", "values": [
      {"measurement": "plasma indirubin level", "setting": "[1]; week 1, oral suspension 10 mg twice daily", "result": 5, "unit": "ng/mL"},
      {"measurement": "plasma indirubin level", "setting": "[1]; week 2, oral suspension 10 mg twice daily", "result": 25, "unit": "ng/mL"},
      {"measurement": "plasma indirubin level", "setting": "[1]; week 3, 2.5 mg once per day", "result": 2, "unit": "ng/mL"},
      {"measurement": "plasma indirubin level", "setting": "[1]; week 4, 2.5 mg once per day", "result": 3, "unit": "ng/mL"},
      {"measurement": "plasma indirubin level", "setting": "[1]; week 5, 2.5 mg once per day", "result": 2, "unit": "ng/mL"},
      {"measurement": "plasma indirubin level", "setting": "[1]; week 6, 2.5 mg once per day", "result": 3, "unit": "ng/mL"},
      {"measurement": "increase of CYP1A1 mRNA in PBMCs", "setting": "CYP1A1; [8]", "result": 12, "unit": "×"},
      {"measurement": "increase of CYP1A1 mRNA in PBMCs compared to baseline", "setting": "CYP1A1; [9]", "result": 15, "unit": "×"},
      {"measurement": "increase of CYP1A2 mRNA in PBMCs", "setting": "CYP1A2; [8]", "result": 3, "unit": "×"},
      {"measurement": "increase of CYP1A2 mRNA in PBMCs compared to baseline", "setting": "CYP1A2; [9]", "result": 6, "unit": "×"}
    ]},
    {"smiles": "CCN(C(=O)c1c(O)c2c(Cl)cccc2n(C)c1=O)c1ccccc1", "note": "[laquinimod]", "values": [
      {"measurement": "trial's primary endpoint", "setting": "[2]", "result": "failed to meet the trial's primary endpoint"}
    ]},
    {"smiles": "CN(C(=O)c1c(O)c2ccccc2n(C)c1=O)c1ccccc1", "note": "[linomide, linomide (roquinimex)]", "values": [
      {"measurement": "echocardiogram findings", "setting": "[3]", "result": "signs of valvar heart disease"},
      {"measurement": "toxicity leading to termination of development", "setting": "[4]", "result": "cardiovascular toxicity, specifically pleuritis, pericarditis, and chest pain"}
    ]},
    {"smiles": "CN1C(=O)/C(=C2/C(=O)Nc3ccccc32)c2ccccc21", "note": "[meisoindigo]", "values": [
      {"measurement": "fraction of added compound metabolized", "setting": "[5]; microsomes from a healthy normal individual", "result": 99, "unit": "%"},
      {"measurement": "metabolism in presence of microsomes", "setting": "[5]; patient blood microsomes", "result": "little to no meisoindigo was metabolized"}
    ]},
    {"smiles": "COc1ccc2[nH]c([S+]([O-])Cc3ncc(C)c(OC)c3C)nc2c1", "note": "(stereo not shown) [omeprazole]", "values": [
      {"measurement": "effect of lead in dose on headaches", "setting": "[6]", "result": "reduce the development of headaches"}
    ]},
    {"smiles": "CC(C)c1c(O)cc(/C=C/c2ccccc2)cc1O", "note": "[tapinarof]", "values": [
      {"measurement": "patients who developed inflammation of the hair follicle (folliculitis)", "setting": "[7]", "result": "Over 20%"}
    ]}
  ]
}
